# Measurements as given in patent US20230043672A1, “AROMATIC AMIDO DERIVATIVES AS LPA RECEPTOR 2 INHIBITORS” (CHIESI FARMACEUTICI S.P.A., priority 2019, published 2023).
# Read-outs that look alike come from different tables or passages of the source.
# Target: T1, human recombinant LPA2 expressed in CHO cells (Homo sapiens, UniProt Q9HBW0)
# T1 construct: expressed in transfected cells; host or cells: CHO cells (CHO-hLPA2 cell line)
# Test: FLIPR calcium mobilization assay, LPA2 antagonism in CHO-hLPA2 cells
# Assay type: cell-based
# Experimental: The effectiveness of compounds of the present invention as LPA2 antagonist can be determined at the human recombinant LPA2 expressed in CHO cells, using a FLIPR assay in 384 well format.
# CHO-hLPA2 cell lines are cultured in a humidified incubator at 5% CO2 in DMEM/F-12 (1:1) MIXTURE with 2 mM Glutamax, supplemented with 10% of Foetal Bovine Serum, 1 mM Sodium Pyruvate, 11 mM Hepes and 1× Penicillin/Streptomycin. CHO hLPA2 cells are seeded into black walled clear-bottom 384-well plates (#781091, Greiner Bio-One GmbH) at a density of 7,500 cells per well in 50 μl culture media and grown overnight in a 37° C. humidified CO2-incubator. Serial dilutions (1:3 or 1:4, 11 points CRC) of compounds are performed in 100% DMSO at 200× the final concentration. The compounds are diluted 1:50 prior to the experiment with Assay Buffer (20 mM HEPES, 145 mM NaCl, 5 mM KCl, 5.5 mM glucose, 1 mM MgCl2 and 2 mM CaCl2), pH 7.4 containing 0.01% Pluronic F-127) to obtain a solution corresponding to […] the final concentration in the assay (4×, 2% DMSO). The final concentration of DMSO in the assay will be 0.5% in each well. Medium is removed by aspiration and cells are then incubated with 30 μl of a loading solution containing 5 μM of the cytoplasmic Ca2+ indicator Cal-520 AM in Assay Buffer containing 2.5 mM probenecid for 30 min at 37° C. incubator (cell loading). The loaded cell plates are transferred into the FLIPR instrument and calcium responses are monitored during the on-line addition protocols. For testing of compounds, after the cell loading, 10 μl/well of 4× antagonists' solution was added onto the cells. After 30 min pre-incubation (at 37° C.), 10 μl/well of 5× concentrated LPA EC80 was added and Ca2+ mobilization responses was followed during the on-line addition protocol. Intracellular peak fluorescence values subtracted by baseline fluorescence are exported and analysed to determine IC50 values, respectively. The calcium response is expressed as percentage of the maximal inhibition of the EC80 agonist response.
# The raw data obtained in unstimulated controls (DMSO, no LPA) are set as “100% inhibition”, while the raw data obtained in negative controls, i.e. in the absence of compounds and stimulating with LPA EC80, are set as “0% inhibition”.
# The raw data (peak height expressed as relative fluorescence units) are normalized and transformed into “percent of inhibition”. Curve fitting and pIC50 (−Log IC50) estimations are carried out using a four-parameter logistic model using XLfit Software.
# [1] = LPA EC80 stimulation, potency class, read-out: LPA2 IC50
# T1 sequence (Q9HBW0 whole entry): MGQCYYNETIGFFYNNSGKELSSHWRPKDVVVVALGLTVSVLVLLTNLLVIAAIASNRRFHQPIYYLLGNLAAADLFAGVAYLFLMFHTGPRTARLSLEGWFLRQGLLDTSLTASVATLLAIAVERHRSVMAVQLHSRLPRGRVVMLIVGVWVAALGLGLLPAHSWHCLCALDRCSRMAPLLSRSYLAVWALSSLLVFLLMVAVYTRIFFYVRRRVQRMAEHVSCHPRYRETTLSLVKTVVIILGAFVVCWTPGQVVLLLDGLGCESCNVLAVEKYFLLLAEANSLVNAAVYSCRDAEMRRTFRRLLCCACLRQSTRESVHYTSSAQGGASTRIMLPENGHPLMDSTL
"IC50 (compound called inactive on receptor LPA2, read-out: IC50 on LPA2 receptor) [nM]",IC50 [1] [nM],Structure (SMILES)
> 3000,–,"COC(=O)Nc1nc(C)c(S(=O)(=O)N2CCN(C[C@H](C)Nc3ncnc4ncccc34)CC2)s1 [Comparative Example A, Methyl (S)-(4-methyl-5-((4-(2-(pyrido[2,3-d]pyrimidin-4 ylamino)propyl)piperazin-1-yl)sulfonyl)thiazol-2-yl)carbamate, reference compound]"
–,< 10,"COC(=O)Nc1nc(C)c(S(=O)(=O)N2CCN(C[C@H](C)NC(=O)c3cccc(-c4sc(C)nc4C)c3)CC2)s1 [Example 1, methyl N-[5-({4-[(2S)-2-{[3-(2,4-dimethyl-1,3-thiazol-5-yl)phenyl]formamido}propyl]piperazin-1-yl}sulfonyl)-4-methyl-1,3-thiazol-2-yl]carbamate]"
–,10 to 100,"Cc1cc(-c2ccc(S(=O)(=O)N3CCN(C[C@H](C)NC(=O)c4cc(-c5sc(C)nc5C)ccc4F)CC3)s2)on1 [Example 2, 5-(2,4-dimethyl-1,3-thiazol-5-yl)-2-fluoro-N-[(2 S)-1-(4-{[5-(3-methyl-1,2-oxazol-5-yl)thiophen-2-yl]sulfonyl}piperazin-1-yl)propan-2-yl]benzamide]"
–,10 to 100,"Cc1cc(-c2ccc(S(=O)(=O)N3CCN(C[C@H](C)NC(=O)c4cc(-c5sc(C)nc5C)ccn4)CC3)s2)on1 [Example 3, 4-(2,4-dimethyl-1,3-thiazol-5-yl)-N-[(2S)-1-(4-{[5-(3-methyl-1,2-oxazol-5-yl)thiophen-2-yl]sulfonyl}piperazin-1-yl)propan-2-yl]pyridine-2-carboxamide]"
–,< 1000,"COC(=O)Nc1nc(C)c(S(=O)(=O)N2CCN(C[C@H](C)NC(=O)c3cc(-c4sc(C)nc4C)ccn3)CC2)s1 [Example 4, methyl N-[5-({4-[(2S)-2-{[4-(2,4-dimethyl-1,3-thiazol-5-yl)pyridin-2-yl]formamido}propyl]piperazin-1-yl}sulfonyl)-4-methyl-1,3-thiazol-2-yl]carbamate]"
–,10 to 100,"COC(=O)Nc1nc(C)c(S(=O)(=O)N2CCN(C[C@H](C)NC(=O)c3cc(-c4sc(C)nc4C)ccc3F)CC2)s1 [Example 5, methyl N-[5-({4-[(2S)-2-{[5-(2,4-dimethyl-1,3-thiazol-5-yl)-2-fluorophenyl]formamido}propyl]piperazin-1-yl}sulfonyl)-4-methyl-1,3-thiazol-2-yl]carbamate]"
–,< 1000,"COC(=O)Nc1nc(C)c(S(=O)(=O)N2CCN(C[C@H](C)NC(=O)c3cccc(-c4sc(C)nc4C)n3)CC2)s1 [Example 6, methyl N-[5-({4-[(2S)-2-{[6-(2,4-dimethyl-1,3-thiazol-5-yl)pyridin-2-yl]formamido}propyl]piperazin-1-yl}sulfonyl)-4-methyl-1,3-thiazol-2-yl]carbamate]"
–,10 to 100,"COC(=O)Nc1nc(C)c(S(=O)(=O)N2CCN(C[C@H](C)NC(=O)c3cccc(-c4cccc(CN(C)C)c4)c3)CC2)s1 [Example 7, methyl N-[5-({4-[(2S)-2-({3′-[(dimethylamino)methyl]-[1,1′-biphenyl]-3-yl}formamido)propyl]piperazin-1-yl}sulfonyl)-4-methyl-1,3-thiazol-2-yl]carbamate]"
–,10 to 100,"COC(=O)Nc1nc(C)c(S(=O)(=O)N2CCN(C[C@H](C)NC(=O)c3cccc(-c4ccc(C)nc4)c3)CC2)s1 [Example 8, methyl N-[4-methyl-5-({4-[(2S)-2-{[3-(6-methylpyridin-3-yl)phenyl] formamido}propyl]piperazin-1-yl}sulfonyl)-1,3-thiazol-2-yl]carbamate]"
–,< 1000,"COC(=O)Nc1nc(C)c(S(=O)(=O)N2CCN(C[C@H](C)NC(=O)c3cccc(-c4cn(C)nc4C(F)(F)F)c3)CC2)s1 [Example 9, methyl N-[4-methyl-5-({4-[(2S)-2-({3-[1-methyl-3-(trifluoromethyl)-1H-pyrazol-4-yl]phenyl}formamido)propyl]piperazin-1-yl}sulfonyl)-1,3-thiazol-2-yl]carbamate]"
–,< 1000,"COC(=O)Nc1nc(C)c(S(=O)(=O)N2CCN(C[C@H](C)NC(=O)c3cc(-c4cccc(CN(C)C)c4)cs3)CC2)s1 [Example 10, methyl N-[5-({4-[(2S)-2-[(4-{3-[(dimethylamino)methyl]phenyl}thiophen-2-yl)formamido]propyl]piperazin-1-yl}sulfonyl)-4-methyl-1,3-thiazol-2-yl]carbamate]"
–,< 1000,"Cc1nc(C)c(-c2cccc(C(=O)N[C@@H](C)CN3CCN(S(=O)(=O)c4ccc5[nH]c(=O)sc5c4)CC3)c2)s1 [Example 11, 3-(2,4-dimethyl-1,3-thiazol-5-yl)-N-[(2S)-1-{4-[(2-oxo-2,3-dihydro-1,3-benzothiazol 6-yl)sulfonyl]piperazin-1-yl}propan-2-yl]benzamide]"
